According to PMC5218480 (PLoS ONE, 2017):

Test system: MV-4-11 cells
Assay: Gene expression microarray analysis (Affymetrix PrimeView) and GSEA
Type: cell-based, human
Parameters: RFU PODN (11730768_x_at) / Fold change /veh PODN (11730768_x_at) / RFU LINC00158 (11744669_a_at) / Fold change /veh LINC00158 (11744669_a_at) / RFU DUSP10 (11751237_a_at) / Fold change /veh DUSP10 (11751237_a_at) / RFU ID3 (11757404_x_at) / Fold change /veh ID3 (11757404_x_at) / RFU PLEKHG5 (11737974_s_at) / Fold change /veh PLEKHG5 (11737974_s_at) / RFU LRRC4B (11730491_at) / Fold change /veh LRRC4B (11730491_at) / RFU GIMAP4 (11747438_a_at) / Fold change /veh GIMAP4 (11747438_a_at) / RFU KRT8 (11758183_x_at) / Fold change /veh KRT8 (11758183_x_at) / RFU CNN1 (11734310_a_at) / Fold change /veh CNN1 (11734310_a_at) / RFU VPS37D (11726825_at) / Fold change /veh VPS37D (11726825_at) / RFU C10orf10 (11716522_x_at) / Fold change /veh C10orf10 (11716522_x_at) / RFU KIR2DL2 /// KIR2DL4 /// KIR2DL5A /// KIR2DL5B /// KIR2DS1 /// KIR2DS2 /// KIR2DS3 /// KIR2DS4 /// KIR3DL3 /// KIR3DL3 /// KIR3DS1 (11738374_at) / Fold change /veh KIR2DL2 /// KIR2DL4 /// KIR2DL5A /// KIR2DL5B /// KIR2DS1 /// KIR2DS2 /// KIR2DS3 /// KIR2DS4 /// KIR3DL3 /// KIR3DL3 /// KIR3DS1 (11738374_at) / RFU C1QL1 (11718748_at) / Fold change /veh C1QL1 (11718748_at) / RFU TMPRSS4 (11747572_a_at) / Fold change /veh TMPRSS4 (11747572_a_at) / RFU HAMP (11756126_x_at) / Fold change /veh HAMP (11756126_x_at) / RFU RNFT2 (11725882_a_at) / Fold change /veh RNFT2 (11725882_a_at) / RFU NR4A2 (11747474_a_at) / Fold change /veh NR4A2 (11747474_a_at) / RFU ABCC12 (11746883_a_at) / Fold change /veh ABCC12 (11746883_a_at) / RFU TMEM136 (11760407_x_at) / Fold change /veh TMEM136 (11760407_x_at) / RFU CLDN22 /// WWC2 (11732394_at) / Fold change /veh CLDN22 /// WWC2 (11732394_at) / RFU HLA-DPB1 (11760878_x_at) / Fold change /veh HLA-DPB1 (11760878_x_at) / RFU SPINT1 (11716480_a_at) / Fold change /veh SPINT1 (11716480_a_at) / RFU GAP43 (11754022_s_at) / Fold change /veh GAP43 (11754022_s_at) / RFU A4GNT (11735810_at) / Fold change /veh A4GNT (11735810_at) / RFU PRB3 (11715151_x_at) / Fold change /veh PRB3 (11715151_x_at) / RFU TUBB4B (11761932_at) / Fold change /veh TUBB4B (11761932_at) / RFU CAPN14 (11732068_a_at) / Fold change /veh CAPN14 (11732068_a_at) / RFU TMCC2 (11721928_a_at) / Fold change /veh TMCC2 (11721928_a_at) / RFU IRGQ (11745062_a_at) / Fold change /veh IRGQ (11745062_a_at) / RFU FAM174B (11720279_a_at) / Fold change /veh FAM174B (11720279_a_at) / RFU TMPRSS4 (11748680_a_at) / Fold change /veh TMPRSS4 (11748680_a_at) / RFU FAM212B (11763350_a_at) / Fold change /veh FAM212B (11763350_a_at) / RFU PLEKHG5 (11743358_a_at) / Fold change /veh PLEKHG5 (11743358_a_at) / RFU ZSCAN30 (11745921_a_at) / Fold change /veh ZSCAN30 (11745921_a_at) / RFU CMKLR1 (11741424_a_at) / Fold change /veh CMKLR1 (11741424_a_at) / RFU LOC101060620 /// MAPK8IP1 (11723275_at) / Fold change /veh LOC101060620 /// MAPK8IP1 (11723275_at) / RFU SPTSSB (11747773_x_at) / Fold change /veh SPTSSB (11747773_x_at) / RFU PRSS12 (11739890_at) / Fold change /veh PRSS12 (11739890_at) / RFU BIN1 (11741810_x_at) / Fold change /veh BIN1 (11741810_x_at) / RFU WNT11 (11732464_a_at) / Fold change /veh WNT11 (11732464_a_at) / RFU C10orf10 (11716521_a_at) / Fold change /veh C10orf10 (11716521_a_at) / RFU C5orf56 (11738089_at) / Fold change /veh C5orf56 (11738089_at) / RFU CYB561 (11721691_x_at) / Fold change /veh CYB561 (11721691_x_at) / RFU ANKRD19P (11752326_a_at) / Fold change /veh ANKRD19P (11752326_a_at) / RFU OR2T12 /// OR2T33 /// OR2T8 (11738714_s_at) / Fold change /veh OR2T12 /// OR2T33 /// OR2T8 (11738714_s_at) / RFU VCAN (11748164_a_at) / Fold change /veh VCAN (11748164_a_at) / RFU JSRP1 (11732532_at) / Fold change /veh JSRP1 (11732532_at) / RFU KRTAP10-11 (11738290_x_at) / Fold change /veh KRTAP10-11 (11738290_x_at) / RFU MYO3A (11730013_a_at) / Fold change /veh MYO3A (11730013_a_at) / RFU EBF3 (11725865_a_at) / Fold change /veh EBF3 (11725865_a_at) / RFU CAMK2N1 (11719241_x_at) / Fold change /veh CAMK2N1 (11719241_x_at) / RFU C5orf56 (11738088_a_at) / Fold change /veh C5orf56 (11738088_a_at) / RFU OLFML3 (11715873_a_at) / Fold change /veh OLFML3 (11715873_a_at) / RFU LOC100653217 /// NTM (11731650_a_at) / Fold change /veh LOC100653217 /// NTM (11731650_a_at) / RFU MAPK11 (11762145_a_at) / Fold change /veh MAPK11 (11762145_a_at) / RFU FIZ1 (11724087_x_at) / Fold change /veh FIZ1 (11724087_x_at) / RFU OASL (11726364_x_at) / Fold change /veh OASL (11726364_x_at) / RFU SOX15 (11748057_x_at) / Fold change /veh SOX15 (11748057_x_at) / RFU CD79A (11719716_a_at) / Fold change /veh CD79A (11719716_a_at) / RFU HIST1H1D (11736915_at) / Fold change /veh HIST1H1D (11736915_at) / RFU CASKIN2 (11723855_a_at) / Fold change /veh CASKIN2 (11723855_a_at) / RFU LOC730098 (11760151_x_at) / Fold change /veh LOC730098 (11760151_x_at) / RFU OR4N2 (11742367_at) / Fold change /veh OR4N2 (11742367_at) / RFU PRRT2 (11749266_a_at) / Fold change /veh PRRT2 (11749266_a_at) / RFU SNX32 (11753110_a_at) / Fold change /veh SNX32 (11753110_a_at) / RFU CDHR5 (11726645_a_at) / Fold change /veh CDHR5 (11726645_a_at) / RFU RCAN1 (11760418_a_at) / Fold change /veh RCAN1 (11760418_a_at) / RFU FAM167A (11723789_a_at) / Fold change /veh FAM167A (11723789_a_at) / RFU FAM26E (11764081_at) / Fold change /veh FAM26E (11764081_at) / RFU ISYNA1 (11749810_s_at) / Fold change /veh ISYNA1 (11749810_s_at) / RFU ACY1 (11761880_at) / Fold change /veh ACY1 (11761880_at) / RFU 11764098_at / Fold change /veh 11764098_at / RFU SAMD14 (11745864_x_at) / Fold change /veh SAMD14 (11745864_x_at) / RFU NPB (11741838_a_at) / Fold change /veh NPB (11741838_a_at) / RFU TMPRSS6 (11731388_a_at) / Fold change /veh TMPRSS6 (11731388_a_at) / RFU KRTAP10-2 (11738614_at) / Fold change /veh KRTAP10-2 (11738614_at) / RFU ARHGAP8 /// PRR5-ARHGAP8 (11727945_x_at) / Fold change /veh ARHGAP8 /// PRR5-ARHGAP8 (11727945_x_at) / RFU KRTAP5-7 /// NADSYN1 (11734609_at) / Fold change /veh KRTAP5-7 /// NADSYN1 (11734609_at) / RFU RASL12 (11751679_a_at) / Fold change /veh RASL12 (11751679_a_at) / RFU CDKN2B (11736163_a_at) / Fold change /veh CDKN2B (11736163_a_at) / RFU PRF1 (11729649_at) / Fold change /veh PRF1 (11729649_at) / RFU, ZNF638 /// ZNF638-IT1 / Fold change vs veh, ZNF638 /// ZNF638-IT1 / RFU, PANK3 / Fold change vs veh, PANK3 / RFU, SH3YL1 / Fold change vs veh, SH3YL1 / RFU, ZEB2 / Fold change vs veh, ZEB2 / RFU, NRIP1 / Fold change vs veh, NRIP1 / RFU, PTTG1IP / Fold change vs veh, PTTG1IP / RFU, CAPN2 / Fold change vs veh, CAPN2 / RFU, MED14 / Fold change vs veh, MED14 / RFU, SNORA58 / Fold change vs veh, SNORA58 / RFU, C1orf63 / Fold change vs veh, C1orf63 / RFU, LRRFIP1 / Fold change vs veh, LRRFIP1 / RFU, NDUFAF7 / Fold change vs veh, NDUFAF7 / RFU, SLC12A2 / Fold change vs veh, SLC12A2 / RFU, IBTK / Fold change vs veh, IBTK / RFU, ESF1 / Fold change vs veh, ESF1 / Fold change vs veh, TMEM50B / RFU, TAOK1 / Fold change vs veh, TAOK1 / RFU, ACBD3 / Fold change vs veh, ACBD3 / RFU, TMA16 / Fold change vs veh, TMA16 / RFU, RWDD3 / Fold change vs veh, RWDD3 / RFU, BCAT1 / Fold change vs veh, BCAT1 / RFU, EDEM3 / Fold change vs veh, EDEM3 / RFU, TMEM33 / Fold change vs veh, TMEM33 / RFU, WDR75 / Fold change vs veh, WDR75 / RFU, AHCTF1 / Fold change vs veh, AHCTF1 / RFU, TFRC / Fold change vs veh, TFRC / RFU, ZDHHC17 / Fold change vs veh, ZDHHC17 / RFU, NOM1 / Fold change vs veh, NOM1 / RFU, ARL8B / Fold change vs veh, ARL8B / RFU, ZBTB11 / Fold change vs veh, ZBTB11 / RFU, TAMM41 / Fold change vs veh, TAMM41 / RFU, KIAA1704 /// LOC100996395 / Fold change vs veh, KIAA1704 /// LOC100996395 / RFU, ING1 / Fold change vs veh, ING1 / RFU, TRMT61B / Fold change vs veh, TRMT61B / RFU, FUBP3 / Fold change vs veh, FUBP3 / RFU, TP53 / Fold change vs veh, TP53 / RFU, TNKS2 / Fold change vs veh, TNKS2 / RFU, ZFP14 / Fold change vs veh, ZFP14 / RFU, ACTR2 / Fold change vs veh, ACTR2 / RFU, PPP3R1 / Fold change vs veh, PPP3R1 / RFU, PIK3R1 / Fold change vs veh, PIK3R1 / RFU, HNRNPA1 / Fold change vs veh, HNRNPA1 / RFU, RNF170 / Fold change vs veh, RNF170 / RFU, ZNF28 / Fold change vs veh, ZNF28 / RFU, RNGTT / Fold change vs veh, RNGTT / RFU, OGT / Fold change vs veh, OGT / RFU, BRD1 / Fold change vs veh, BRD1 / RFU, MARS / Fold change vs veh, MARS / RFU, ZNF655 / Fold change vs veh, ZNF655 / RFU, FAHD1 / Fold change vs veh, FAHD1 / RFU, BDP1 / Fold change vs veh, BDP1 / RFU, LRRCC1 / Fold change vs veh, LRRCC1 / RFU, ARID1A / Fold change vs veh, ARID1A / RFU, ZNF146 / Fold change vs veh, ZNF146 / RFU, ZNF330 / Fold change vs veh, ZNF330 / RFU, GPN3 / Fold change vs veh, GPN3 / RFU, C9orf123 / Fold change vs veh, C9orf123 / RFU, N4BP2L2 / Fold change vs veh, N4BP2L2 / RFU, ARFIP1 / Fold change vs veh, ARFIP1 / RFU, FAM179B / Fold change vs veh, FAM179B / RFU, BCL10 / Fold change vs veh, BCL10 / RFU, UHRF1BP1L / Fold change vs veh, UHRF1BP1L / RFU, BET1 / Fold change vs veh, BET1 / RFU, CNOT2 / Fold change vs veh, CNOT2 / RFU, ZNF268 / Fold change vs veh, ZNF268 / Fold change vs veh, ZNF507 / RFU, DGCR2 / Fold change vs veh, DGCR2 / RFU, WDSUB1 / Fold change vs veh, WDSUB1 / Fold change vs veh, HSP90B1 /// MIR3652 / RFU, ADSS / Fold change vs veh, ADSS / RFU, GK / Fold change vs veh, GK / RFU, ZNF148 / Fold change vs veh, ZNF148 / RFU, TAF9 / Fold change vs veh, TAF9 / RFU, SLC1A5 / Fold change vs veh, SLC1A5 / RFU, SLMO2 / Fold change vs veh, SLMO2 / RFU, ABCC4 / Fold change vs veh, ABCC4 / RFU, LOC101060439 /// RAP1B / Fold change vs veh, LOC101060439 /// RAP1B / RFU, RFX7 / Fold change vs veh, RFX7 / RFU, GTPBP10 / Fold change vs veh, GTPBP10 / RFU, CNEP1R1 / Fold change vs veh, CNEP1R1 / RFU, BIVM-ERCC5 /// ERCC5 / Fold change vs veh, BIVM-ERCC5 /// ERCC5 / RFU, ILF3 / Fold change vs veh, ILF3 / RFU 11762660_at / Fold change /veh 11762660_at / RFU VCAN (11757783_s_at) / Fold change /veh VCAN (11757783_s_at) / RFU DDX43 (11728927_at) / Fold change /veh DDX43 (11728927_at) / RFU KRT8 (11758188_x_at) / Fold change /veh KRT8 (11758188_x_at) / RFU NKD1 (11759106_at) / Fold change /veh NKD1 (11759106_at) / RFU SRD5A1 (11742802_a_at) / Fold change /veh SRD5A1 (11742802_a_at) / RFU TPSAB1 /// TPSB2 (11721975_s_at) / Fold change /veh TPSAB1 /// TPSB2 (11721975_s_at) / RFU GSTM3 (11746129_a_at) / Fold change /veh GSTM3 (11746129_a_at) / RFU IL23R (11737362_x_at) / Fold change /veh IL23R (11737362_x_at) / RFU TMEM51 (11727254_a_at) / Fold change /veh TMEM51 (11727254_a_at) / RFU PIWIL2 (11732686_x_at) / Fold change /veh PIWIL2 (11732686_x_at) / RFU ORM1 (11744905_x_at) / Fold change /veh ORM1 (11744905_x_at) / RFU CCDC152 (11743942_at) / Fold change /veh CCDC152 (11743942_at) / RFU ECM1 (11717891_a_at) / Fold change /veh ECM1 (11717891_a_at) / RFU IL23R (11748794_a_at) / Fold change /veh IL23R (11748794_a_at) / RFU TNFAIP8L3 (11732012_x_at) / Fold change /veh TNFAIP8L3 (11732012_x_at) / RFU MBOAT4 (11741988_at) / Fold change /veh MBOAT4 (11741988_at) / RFU 11764193_at / Fold change /veh 11764193_at / RFU TMEM53 (11763286_at) / Fold change /veh TMEM53 (11763286_at) / RFU MAGEB2 (11727129_at) / Fold change /veh MAGEB2 (11727129_at) / RFU TMEM200A (11744735_a_at) / Fold change /veh TMEM200A (11744735_a_at) / RFU CCDC152 (11751479_a_at) / Fold change /veh CCDC152 (11751479_a_at) / RFU FAM211A (11726209_a_at) / Fold change /veh FAM211A (11726209_a_at) / RFU RGS16 (11746705_a_at) / Fold change /veh RGS16 (11746705_a_at) / RFU VCAN (11755009_s_at) / Fold change /veh VCAN (11755009_s_at) / RFU RHOB (11743442_s_at) / Fold change /veh RHOB (11743442_s_at) / RFU RGS16 (11720943_a_at) / Fold change /veh RGS16 (11720943_a_at) / RFU RGS16 (11720944_at) / Fold change /veh RGS16 (11720944_at) / RFU, VPS4B / Fold change vs veh, VPS4B / RFU, CREB1 / Fold change vs veh, CREB1 / RFU, DNAJC13 / Fold change vs veh, DNAJC13 / RFU, GNAQ / Fold change vs veh, GNAQ / RFU, CDK5R1 / Fold change vs veh, CDK5R1 / RFU, ZRANB3 / Fold change vs veh, ZRANB3 / RFU, CUL4A / Fold change vs veh, CUL4A / RFU, CCNY / Fold change vs veh, CCNY / RFU, UFL1 / Fold change vs veh, UFL1 / RFU, COG3 / Fold change vs veh, COG3 / RFU, DIAPH2 / Fold change vs veh, DIAPH2 / RFU, SKA2 / Fold change vs veh, SKA2 / RFU, AFF3 / Fold change vs veh, AFF3 / RFU, LMF1 / Fold change vs veh, LMF1 / RFU, IPO11 / Fold change vs veh, IPO11 / RFU, DFFB / Fold change vs veh, DFFB / RFU, FOXP1 / Fold change vs veh, FOXP1 / RFU, CARD8 / Fold change vs veh, CARD8 / RFU, STRN3 / Fold change vs veh, STRN3 / RFU, ADK / Fold change vs veh, ADK / RFU, RASSF2 / Fold change vs veh, RASSF2 / RFU, WIPF1 / Fold change vs veh, WIPF1 / RFU, LARP1B / Fold change vs veh, LARP1B / RFU, RASA1 / Fold change vs veh, RASA1 / RFU, RB1 / Fold change vs veh, RB1 / RFU, PPFIA1 / Fold change vs veh, PPFIA1 / RFU, MAT2A / Fold change vs veh, MAT2A / RFU, CCT5 / Fold change vs veh, CCT5 / RFU, WDR92 / Fold change vs veh, WDR92 / RFU, CUX1 / Fold change vs veh, CUX1 / RFU, TTC7A / Fold change vs veh, TTC7A / RFU, TMEM135 / Fold change vs veh, TMEM135 / RFU, DEPTOR / Fold change vs veh, DEPTOR / RFU, CPM / Fold change vs veh, CPM / RFU, DNAJB6 / Fold change vs veh, DNAJB6 / RFU, CACNA2D3 / Fold change vs veh, CACNA2D3 / RFU, DTX4 / Fold change vs veh, DTX4 / RFU, TFCP2 / Fold change vs veh, TFCP2 / RFU, GMCL1 /// GMCL1P1 / Fold change vs veh, GMCL1 /// GMCL1P1 / RFU, AEBP2 / Fold change vs veh, AEBP2 / RFU, SNHG1 /// SNORD22 /// SNORD25 /// SNORD26 /// SNORD27 /// SNORD28 /// SNORD29 /// SNORD31 / Fold change vs veh, SNHG1 /// SNORD22 /// SNORD25 /// SNORD26 /// SNORD27 /// SNORD28 /// SNORD29 /// SNORD31 / Fold change (Aza/veh), C12orf56 (ProbeSet 11735607_a_at) / Fold change (ACY-1035/veh), C12orf56 (ProbeSet 11735607_a_at) / Fold change (Aza/veh), FGFR1OP (ProbeSet 11751329_s_at) / Fold change (ACY-1035/veh), FGFR1OP (ProbeSet 11751329_s_at) / Fold change (Aza/veh), VPS36 (ProbeSet 11739960_a_at) / Fold change (ACY-1035/veh), VPS36 (ProbeSet 11739960_a_at) / RFU SYPL1 (11715823_x_at) / Fold change /veh SYPL1 (11715823_x_at) / RFU IGFBP7 (11715501_s_at) / Fold change /veh IGFBP7 (11715501_s_at) / RFU REEP3 (11722064_at) / Fold change /veh REEP3 (11722064_at) / RFU IGLL1 (11728026_x_at) / Fold change /veh IGLL1 (11728026_x_at): dose or concentration left out as unconfirmed
Conditions: MV-4-11 cells, 48 hours

For `Nc1ccc(-c2cccs2)cc1NC(=O)c1ccc2c(c1)cc(C1CC1)n2CCN1CCOCC1` [ACY-1035], the “RFU RGS16 (11720944_at)” value was 40.38 RFU.
